Laboratory results reported in patent publication US11019821B2, “Fused bicyclic heterocycle derivatives as pesticides” (Bayer Aktiengesellschaft, priority 2018, dated 2021).

How the values were obtained:
Type in all cases: in vivo
[1] = tested on: Ctenocephalides felis; assay: Ctenocephalides felis oral test; settings: application rate 100 ppm in citrated cattle blood, after 2 days, adult cat fleas
Protocol: (§1) Solvent: dimethyl sulfoxide
To produce a suitable active ingredient formulation, 10 mg of active ingredient are mixed with 0.5 ml of dimethyl sulfoxide. Dilution with citrated cattle blood gives the desired concentration.
About 20 unfed adult cat fleas (Ctenocephalides felis) are placed into a chamber which is closed at the top and bottom with gauze. A metal cylinder whose bottom end is closed with parafilm is placed onto the chamber. The cylinder contains the blood/active ingredient formulation, which can be imbibed by the fleas through the parafilm membrane.
After 2 days, the kill in % is determined. 100% means that all of the fleas have been killed; 0% means that none of the fleas have been killed.

[2] = tested on: Myzus persicae; assay: Myzus persicae spray test; settings: foliar, 120 h, application rate 100 g/ha, after 5 days, Chinese cabbage leaf discs, read-out: efficacy (aphids killed)
Protocol: To produce a suitable active ingredient formulation, 1 part by weight of active ingredient is dissolved with the specified parts by weight of solvent and made up to the desired concentration with water containing an emulsifier concentration of 1000 ppm. To produce further test concentrations, the formulation is diluted with emulsifier-containing water.
Discs of Chinese cabbage leaves (Brassica pekinensis) infested by all stages of the green peach aphid (Myzus persicae) are sprayed with an active ingredient formulation of the desired concentration.
(§2) After 5 days, the efficacy in % is determined. 100% means that all the aphids have been killed; 0% means that no aphids have been killed.

[3] = tested on: Lucilia cuprina; assay: Lucilia cuprina test; settings: application rate 100 ppm, after 2 days, L1 larvae
Protocol: as §1
(§3) To produce a suitable active ingredient formulation, 10 mg of active ingredient are mixed with 0.5 ml of dimethyl sulfoxide, and the concentrate is diluted with water to the desired concentration.
About 20 L1 larvae of the Australian sheep blowfly (Lucilia cuprina) are transferred into a test vessel containing minced horsemeat and the active ingredient formulation of the desired concentration.
After 2 days, the kill in % is determined. 100% means that all the larvae have been killed; 0% means that no larvae have been killed.

[4] = tested on: Musca domestica; assay: Musca domestica test; settings: application rate 100 ppm, after 2 days, adult houseflies
Protocol: as §1, §3
Vessels containing a sponge treated with sugar solution and the active ingredient formulation of the desired concentration are populated with 10 adult houseflies (Musca domestica).
After 2 days, the kill in % is determined. 100% means that all of the flies have been killed; 0% means that none of the flies have been killed.

[5] = tested on: Myzus persicae; assay: Myzus persicae oral test; settings: 120 h, application rate 4 ppm, after 5 days, read-out: efficacy (aphids killed)
Protocol: To produce a suitable active ingredient formulation, 1 part by weight of active ingredient is dissolved with the stated parts by weight of solvent and made up to the desired concentration with water.
50 μl of the active ingredient preparation are transferred into microtitre plates and made up to a final volume of 200 μl with 150 μl of IPL41 insect medium (33%+15% sugar). Subselog Puently, the plates are sealed with parafilm, which a mixed population of green peach aphids (Myzus persicae) within a second microtitre plate is able to puncture and imbibe the solution.
as §2

[6] = tested on: Ctenocephalides felis; assay: Ctenocephalides felis in vitro contact test with adult cat fleas; settings: application rate 5 μg/cm^2 (=500 g/ha), after 48 h
Protocol: (§4) For the coating of the test tubes, 9 mg of active ingredient are first dissolved in 1 ml of acetone p.a. and then diluted to the desired concentration with acetone p.a. 250 μl of the solution are distributed homogeneously on the inner walls and the base of a 25 ml glass tube by turning and rocking on an orbital shaker (rocking rotation at 30 rpm for 2 h). With 900 ppm of active ingredient solution and internal surface area 44.7 cm^2, given homogeneous distribution, an area-based dose of 5 μg/cm^2 is achieved.
After the solvent has evaporated off, the tubes are populated with 5-10 adult cat fleas (Ctenocephalides felis), sealed with a perforated plastic lid and incubated in a horizontal position at room temperature and ambient humidity. After 48 h, efficacy is determined. To this end, the tubes are stood upright and the fleas are knocked to the base of the tube. Fleas which remain motionless at the base or move in an uncoordinated manner are considered to be dead or moribund.
100% efficacy means that all the fleas were dead or moribund. 0% efficacy means that no fleas were harmed.

[7] = tested on: Boophilus microplus; assay: Boophilus microplus injection test; settings: application rate 20 μg/animal, assessed after 7 days, engorged adult female cattle ticks
Protocol: as §1
To produce a suitable active ingredient formulation, 10 mg of active ingredient are mixed with 0.5 ml of solvent and the concentrate is diluted to the desired concentration with solvent.
1 μl of the active ingredient solution is injected into the abdomen of 5 engorged adult female cattle ticks (Boophilus microplus). The animals are transferred into dishes and kept in a climate-controlled room.
Efficacy is assessed after 7 days by laying of fertile eggs. Eggs which are not visibly fertile are stored in a climate-controlled cabinet until the larvae hatch after about 42 days. An efficacy of 100% means that none of the ticks has laid any fertile eggs; 0% means that all the eggs are fertile.

[8] = tested on: Rhipicephalus sanguineus; assay: Rhipicephalus sanguineus in vitro contact test with adult brown dog ticks; settings: application rate 5 μg/cm^2 (=500 g/ha), after 48 h
Protocol: as §4, with “walls and base of” for “walls and the base of”, “25 ml test tube by” for “25 ml glass tube by”, “900 ppm active ingredient” for “900 ppm of active ingredient”, “internal surface 44.7 cm^2,” for “internal surface area 44.7 cm^2,”
After the solvent has evaporated off, the tubes are populated with 5-10 adult dog ticks (Rhipicephalus sanguineus), sealed with a perforated plastic lid and incubated in a horizontal position in the dark at room temperature and ambient humidity. After 48 h, efficacy is determined. To this end, the ticks are knocked to the floor of the tube and incubated on a hotplate at 45-50° C. for not more than 5 min. Ticks which remain motionless on the floor or move in such an uncoordinated manner that they are unable to deliberately avoid the heat by climbing upwards are considered to be dead or moribund.
100% efficacy means that all the ticks were dead or moribund. 0% efficacy means that none of the ticks had been harmed.

Which “efficacy (kill in %)” value [1] does the source give for `CCS(=O)(=O)c1c(-c2nc3cc(C(F)(F)F)ncc3n2C)nn2c1CCCC2` [Example I-02] here?
The value was 90%.

What about the pest or weed control at 100 g/ha [2] of the same compound?
The pest or weed control at 100 g/ha was 90%.

And the “efficacy (kill in %)” value [3]?
Its value is 100%.

And the “efficacy (kill in %)” value [4]?
The value was 80%.

What about the pest or weed control at 4 ppm [5] of the same compound?
Its pest or weed control at 4 ppm is 100%.

Which results are given for `CCS(=O)(=O)c1c(-c2nc3cc(C(F)(F)F)ncc3n2C)nn2c1CC(C)CC2` (stereo not drawn) [Example I-05]?
efficacy (kill in %) [1]: 95%; pest or weed control at 100 g/ha [2]: 100%; efficacy (fleas dead or moribund) [6]: 100%; efficacy (no laying of fertile eggs) [7]: 100%; efficacy (ticks dead or moribund) [8]: 100%; efficacy (kill in %) [4]: 80%; pest or weed control at 4 ppm [5]: 100%
